Where “and” joins values, the source holds several entries; their conditions need not be identical. Equal values may be shown once. Toxic doses and inconclusive results are not listed. Bridge positions count the residues as written; N and C are the ends. Square brackets hold non-standard residues; d marks the D form. Peptide text beside a SMILES is read from it. NMeV = CN[CH](C(=O)O)C(C)C; Sar = CNCC(=O)O

The experiment relates to BDF1 mice, B16 melanoma ip, median survival T/C. The experiment is described as follows: NCI In Vivo Anticancer Drug Screen. Data for tumor model B16 Melanoma (intraperitoneal) in B6D2F1 (BDF1) mice. The settings on record: endpoint: median survival time, higher = longer survival. The gist of the method:
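Values are ratios of treated (T) to vehicle-control (C) measurements of survival or tumor size in tumor-bearing mice.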

[1] abbreviates: dose: 50.0 mg/kg/injection, schedule: Q01DX009 (ip), vehicle: saline with Tween-80.
Where [2] appears, read: dose: 100.0 mg/kg/injection, schedule: Q01DX009 (ip), vehicle: saline with Tween-80.
The mark [3] stands for this setting: dose: 200.0 mg/kg/injection, schedule: Q01DX009 (ip), vehicle: saline with Tween-80.
The mark [4] stands for this setting: dose: 12.5 mg/kg/injection, schedule: Q01DX009 (ip), vehicle: saline with Tween-80.
The mark [5] stands for this setting: dose: 25.0 mg/kg/injection, schedule: Q01DX009 (ip), vehicle: Klucel (hydroxypropylcellulose) (HPC).
The mark [6] stands for this setting: dose: 50.0 mg/kg/injection, schedule: Q01DX009 (ip), vehicle: Klucel (hydroxypropylcellulose) (HPC).
[7] abbreviates: dose: 100.0 mg/kg/injection, schedule: Q01DX009 (ip), vehicle: Klucel (hydroxypropylcellulose) (HPC).

For `CC(=O)Oc1c(Br)cc(Br)cc1-c1ccccc1`, the T/C was 98 % of control under setting [1]; 94 % of control under setting [2]; 98 % of control under setting [3]; 91 % of control (dose: 400.0 mg/kg/injection, schedule: Q01DX009 (ip), vehicle: saline with Tween-80).

For `CN(C)N=Nc1ccc(S(=O)(=O)Nc2ncccn2)cc1`, the T/C was 108 % of control under setting [4]; 110 % of control (dose: 14.7 mg/kg/injection, schedule: Q01DX009 (ip), vehicle: saline with Tween-80); 116 % of control (dose: 22.0 mg/kg/injection, schedule: Q01DX009 (ip), vehicle: saline with Tween-80); 123 % of control (dose: 25.0 mg/kg/injection, schedule: Q01DX009 (ip), vehicle: saline with Tween-80); 106 % of control and 123 % of control (dose: 33.0 mg/kg/injection, schedule: Q01DX009 (ip), vehicle: saline with Tween-80); 115 % of control (dose: 75.0 mg/kg/injection, schedule: Q01DX009 (ip), vehicle: saline with Tween-80).

For the compound `O=c1cc(CCl)[nH]nc1CCl`, the T/C by setting is: (dose: 1.5 mg/kg/injection, schedule: Q01DX009 (ip), vehicle: saline with Tween-80) 107 % of control; (dose: 3.0 mg/kg/injection, schedule: Q01DX009 (ip), vehicle: saline with Tween-80) 116 % of control; (dose: 3.12 mg/kg/injection, schedule: Q01DX009 (ip), vehicle: saline with Tween-80) 123 % of control; under setting [4], 124 % of control.

`COc1cccc2c1C(=O)c1c(O)c3c(c(O)c1C2=O)C[C@@](O)(C(C)O)C[C@@H]3OC1CC(N2CCOCC2)C(O)C(C)O1` (some centres undefined): the T/C (dose: 62.5 micrograms/kg/injection, schedule: Q01DX001 (ip), vehicle: water) was 100 % of control; the T/C (dose: 125.0 micrograms/kg/injection, schedule: Q01DX001 (ip), vehicle: water) was 104 % of control; the T/C (dose: 250.0 micrograms/kg/injection, schedule: Q01DX001 (ip), vehicle: water) is 112 % of control.

Consider `CC(C)C1NC(=O)C(N)C(C)OC(=O)C(C(C)C)N(C)C(=O)CN(C)C(=O)C2CCCN2C1=O` (centres undefined) (tested in a mixture with another compound) (H-TVP[Sar][NMeV]; ester 1-C; configuration not given here), for which the T/C by setting is: (dose: 0.22 mg/kg/injection, schedule: Q01DX009 (ip), vehicle: water) 156 % of control; (dose: 25.0 micrograms/kg/injection, schedule: Q01DX009 (ip), vehicle: saline + alcohol) 107 % of control; (dose: 50.0 micrograms/kg/injection, schedule: Q01DX009 (ip), vehicle: saline + alcohol) 122 % of control; (dose: 75.0 micrograms/kg/injection, schedule: Q04DX003 (ip), vehicle: saline + alcohol) 107 % of control and 114 % of control; (dose: 150.0 micrograms/kg/injection, schedule: Q04DX003 (ip), vehicle: saline + alcohol) 116 % of control; (dose: 200.0 micrograms/kg/injection, schedule: Q01DX009 (ip), vehicle: saline + alcohol) 150 % of control. For the same compound, the T/C (dose: 300.0 micrograms/kg/injection, schedule: Q04DX003 (ip), vehicle: saline + alcohol) is 100 % of control; the T/C (dose: 400.0 micrograms/kg/injection, schedule: Q01DX009 (ip), vehicle: saline + alcohol) was 124 % of control; the T/C (dose: 1200.0 micrograms/kg/injection, schedule: Q04DX003 (ip), vehicle: saline + alcohol) was 93 % of control and 107 % of control.

As for `O=[N+]([O-])c1ccc2[nH]c(=S)sc2c1`, the T/C is 97 % of control under setting [5] and 100 % of control under setting [6].

In the case of `Cc1nn(-c2ccccc2)c(N)c1C#N`, the T/C by setting is: under setting [5], 100 % of control; under setting [6], 93 % of control; under setting [7], 103 % of control.

Take `O=C(N/N=C\c1cc(Br)cc(Br)c1O)N/N=C/c1cc(Br)cc(Br)c1O`: the T/C was 108 % of control and 120 % of control (dose: 6.25 mg/kg/injection, schedule: Q01DX009 (ip), vehicle: saline with Tween-80); 96 % of control (dose: 6.25 mg/kg/injection, schedule: Q01DX009 (ip), vehicle: sodium bicarbonate); 104 % of control under setting [4]; 107 % of control (dose: 12.5 mg/kg/injection, schedule: Q01DX009 (ip), vehicle: sodium bicarbonate); 107 % of control (dose: 25.0 mg/kg/injection, schedule: Q01DX009 (ip), vehicle: sodium bicarbonate); 107 % of control (dose: 50.0 mg/kg/injection, schedule: Q01DX009 (ip), vehicle: sodium bicarbonate). For the same compound, the T/C was 118 % of control (dose: 100.0 mg/kg/injection, schedule: Q01DX009 (ip), vehicle: sodium bicarbonate) and 122 % of control (dose: 200.0 mg/kg/injection, schedule: Q01DX009 (ip), vehicle: sodium bicarbonate).

Turning to `Cc1ccc(NC(=O)Nc2cccc3ccccc23)cc1Cl`, the T/C runs as follows: (dose: 12.5 mg/kg/injection, schedule: Q01DX009 (ip), vehicle: Klucel (hydroxypropylcellulose) (HPC)) 94 % of control; under setting [5], 88 % of control.

For `CCC1CC2CC(c3cc4c(cc3OC)N(C)C3C(O)(C(=O)OC)C(OC(C)=O)C5(CC)C=CCN6CCC43C65)c3[nH]c4ccccc4c3CCN(C1)C2` (centres undefined), the T/C (dose: 0.25 mg/kg/injection, schedule: Q01DX009 (ip), vehicle: Klucel (hydroxypropylcellulose) (HPC)) is 108 % of control; the T/C (dose: 0.5 mg/kg/injection, schedule: Q01DX009 (ip), vehicle: Klucel (hydroxypropylcellulose) (HPC)) was 94 % of control; the T/C (dose: 1.0 mg/kg/injection, schedule: Q01DX009 (ip), vehicle: Klucel (hydroxypropylcellulose) (HPC)) is 104 % of control; the T/C (dose: 2.0 mg/kg/injection, schedule: Q01DX009 (ip), vehicle: Klucel (hydroxypropylcellulose) (HPC)) is 111 % of control; the T/C (dose: 4.0 mg/kg/injection, schedule: Q01DX009 (ip), vehicle: Klucel (hydroxypropylcellulose) (HPC)) was 108 % of control; the T/C (dose: 8.0 mg/kg/injection, schedule: Q01DX009 (ip), vehicle: Klucel (hydroxypropylcellulose) (HPC)) is 104 % of control.

On to `CC(=O)Nc1ccc([I+]c2ccc([N+](=O)[O-])cc2)cc1`, for which the T/C by setting is: under setting [5], 100 % of control; under setting [6], 104 % of control; under setting [1], 87 % of control; under setting [7], 90 % of control; under setting [2], 98 % of control; under setting [3], 107 % of control.

With `CCCCOCCN1CCN(CCCN2c3ccccc3Sc3ccc(C(F)(F)F)cc32)CC1`, the T/C runs as follows: (dose: 0.29 mg/kg/injection, schedule: Q04DX003 (ip), vehicle: saline) 89 % of control; (dose: 0.58 mg/kg/injection, schedule: Q04DX003 (ip), vehicle: saline) 102 % of control; (dose: 0.78 mg/kg/injection, schedule: Q01DX009 (ip), vehicle: saline) 112 % of control; (dose: 1.17 mg/kg/injection, schedule: Q04DX003 (ip), vehicle: saline) 107 % of control; (dose: 1.56 mg/kg/injection, schedule: Q01DX009 (ip), vehicle: saline) 115 % of control; (dose: 2.34 mg/kg/injection, schedule: Q04DX003 (ip), vehicle: saline) 89 % of control. The T/C (dose: 3.12 mg/kg/injection, schedule: Q01DX009 (ip), vehicle: saline) is 107 % of control.

Take `Oc1ccc(Cl)c2cccnc12`: the T/C was 90 % of control (dose: 12.5 mg/kg/injection, schedule: Q01DX009 (ip), vehicle: carboxymethylcellulose (CMC)); 96 % of control (dose: 25.0 mg/kg/injection, schedule: Q01DX009 (ip), vehicle: carboxymethylcellulose (CMC)); 97 % of control (dose: 50.0 mg/kg/injection, schedule: Q01DX009 (ip), vehicle: carboxymethylcellulose (CMC)).

Take `c1ccc(CSSCc2ccccc2)cc1`: the T/C under setting [7] is 113 % of control; the T/C (dose: 200.0 mg/kg/injection, schedule: Q01DX009 (ip), vehicle: Klucel (hydroxypropylcellulose) (HPC)) was 114 % of control; the T/C (dose: 400.0 mg/kg/injection, schedule: Q01DX009 (ip), vehicle: Klucel (hydroxypropylcellulose) (HPC)) was 108 % of control.

Regarding `NC(CO)C(O)c1ccc([N+](=O)[O-])cc1` (centres undefined), the T/C (dose: 100.0 mg/kg/injection, schedule: Q04DX003 (ip), vehicle: Klucel (hydroxypropylcellulose) (HPC)) is 97 % of control; the T/C (dose: 200.0 mg/kg/injection, schedule: Q04DX003 (ip), vehicle: Klucel (hydroxypropylcellulose) (HPC)) is 95 % of control; the T/C (dose: 400.0 mg/kg/injection, schedule: Q04DX003 (ip), vehicle: Klucel (hydroxypropylcellulose) (HPC)) was 86 % of control.

The values above are taken from PubChem BioAssay AID192 (DTP/NCI, 2004).
